pIC50: −log10 of the molar value.
What follows are compounds tested on PMS1 (assay: Mini-Gene Reporter Assay—PMS1 (firefly luciferase mini-gene reporter transiently transfected into HEK293 cells)). Details: Homo sapiens; at 5 uM; mini-gene firefly luciferase reporter in HEK293 cells; read-out: PMS1 % Effect at 5 uM.
Format: cell-based
Procedure, shortened: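 Luminescence (RLU) read-out of exon inclusion: compound dilutions, tested in duplicate, act on transiently transfected HEK293 cells carrying a firefly luciferase reporter fused downstream of the PMS1 skipped-exon region. Potency derived by Levenberg-Marquardt curve fitting, with percent effect at 5 μM.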

SMILES	activation at 5 µM [%]
CCOc1cn2nc(C)cc2cc1C(=O)Nc1cnc(N2C[C@H]3CNC[C@H]3C2)nc1 [Compound 590]	> 75
CCOc1cn2nc(C)cc2cc1C(=O)Nc1cnc(N2CCCC(NC)C2)nc1 (stereo not shown) [Compound 591]	< 50
CCOc1cn2nc(C)cc2cc1C(=O)Nc1cnc(NCCNC)nc1 [Compound 592]	< 50
CCOc1cn2nc(C)cc2cc1C(=O)Nc1cnc(NC[C@H]2CCCN2)nc1 [Compound 593]	< 50
CCOc1cn2nc(C)cc2cc1C(=O)Nc1cnc(N2CCNCC2)nc1 [Compound 594]	50 to 75
CCOc1cn2nc(C)cc2cc1C(=O)Nc1cnc(N2CC(N)C2)nc1 [Compound 595]	< 50
CCOc1cn2nc(C)cc2cc1C(=O)Nc1cnc(N2CCN[C@@H](C)C2)nc1 [Compound 596]	50 to 75
CCOc1cn2nc(C)cc2cc1C(=O)Nc1cnc(N2CCC(N)CC2)nc1 [Compound 597]	< 50
CCOc1cn2nc(C)cc2cc1C(=O)Nc1cnc(NCC2CCCNC2)nc1 (stereo not shown) [Compound 598]	< 50
CCOc1cn2nc(C)cc2cc1C(=O)Nc1cnc(N(C)CCNC)nc1 [Compound 599]	< 50
CCOc1cn2nc(C)cc2cc1C(=O)Nc1cnc(N2CCCNCC2)nc1 [Compound 600]	< 50
CCOc1cn2nc(C)cc2cc1C(=O)Nc1cnc(N2CCCC(CCC3CCCNC3)C2)nc1 (stereo not shown) [Compound 603]	< 50
CCOc1cn2nc(C)cc2cc1C(=O)Nc1cnc(N2CCNCC3(CC3)C2)nc1 [Compound 604]	< 50
CCOc1cn2nc(C)cc2cc1C(=O)Nc1cnc(N2CC3C4CCC(NC4)C3C2)nc1 (stereo not shown) [Compound 605]	< 50
CCOc1cn2nc(C)cc2cc1C(=O)Nc1cnc(N2CCC(C3NCC3(C)C)CC2)nc1 (stereo not shown) [Compound 606]	< 50
CCOc1cn2nc(C)cc2cc1C(=O)Nc1cnc(N2CCC(CCN3CCNCC3)CC2)nc1 [Compound 607]	< 50
CCOc1cn2nc(C)cc2cc1C(=O)Nc1cnc(N2CCNC(CS(C)(=O)=O)C2)nc1 (stereo not shown) [Compound 608]	< 50
CCOc1cn2nc(C)cc2cc1C(=O)Nc1cnc(N2CCC(C(O)C3CCNCC3)CC2)nc1 (stereo not shown) [Compound 609]	< 50
CCOc1cn2nc(C)cc2cc1C(=O)Nc1cnc(N2CCC(C3CCCNC3)CC2)nc1 (stereo not shown) [Compound 610]	< 50
CCOc1cn2nc(C)cc2cc1C(=O)Nc1cnc(N2CCC3CCNCC3C2)nc1 (stereo not shown) [Compound 611]	< 50
CCOc1cn2nc(C)cc2cc1C(=O)Nc1cnc(N2CC(NC)C3(CC3)C2)nc1 (stereo not shown) [Compound 612]	< 50
CCOc1cn2nc(C)cc2cc1C(=O)Nc1cnc(N2CCOC3(CCCNC3)C2)nc1 (stereo not shown) [Compound 613]	< 50
CCOc1cn2nc(C)cc2cc1C(=O)Nc1cnc(N2CCC(CC[C@@H]3CCCN3)CC2)nc1 [Compound 615]	< 50
CCOc1cn2nc(C)cc2cc1C(=O)Nc1cnc(N2CC[C@@H](C)[C@@H](NC)C2)nc1 [Compound 617]	< 50
CCOc1cn2nc(C)cc2cc1C(=O)Nc1cnc(N2CCC(COC3CCNC3)CC2)nc1 (stereo not shown) [Compound 618]	< 50
CCOc1cn2nc(C)cc2cc1C(=O)Nc1cnc(N2CC[C@@H]3CNC[C@@H]3CC2)nc1 [Compound 619]	< 50
CCNCC1CCN(c2ncc(NC(=O)c3cc4cc(C)nn4cc3OCC)cn2)CC1 [Compound 623]	< 50
CCOc1cn2nc(C)cc2cc1C(=O)Nc1cnc(N2CC3(CCNCC3)C2)nc1 [Compound 625]	50 to 75

Same assay, conditions: Homo sapiens; mini-gene firefly luciferase reporter in HEK293 cells

SMILES	pIC50
COc1cc2nc(C)cn2cc1C(=O)Nc1ccc(N2CCNCC2C(F)F)cc1F (stereo not shown) [Compound 627]	5.00 to 6.00
COc1cc2nc(C)cn2cc1C(=O)Nc1ccc(N2C[C@@H]3C[C@H]2CN3)cc1F [Compound 628]	> 6.00
COc1cc2nc(C)cn2cc1C(=O)Nc1ccc(N2CC[C@@H]3NCC[C@@H]3C2)cc1F [Compound 629]	> 6.00
